# Data reported in publication PMC9785969, “Synthesis, Biological Evaluation, and Molecular Dynamics of Carbothioamides Derivatives as Carbonic Anhydrase II and 15-Lipoxygenase Inhibitors” (Molecules, 2022).
# Entries after “also recorded” stand apart in the source; their conditions may differ. Read-outs that look alike come from different tables or passages of the source.
# How the values were obtained:
# [1] = biological target: bovine carbonic anhydrase II (b-CA II) (Bos taurus, UniProt P00921); assay: Carbonic anhydrase (b-CA II) inhibition assay, p-nitrophenyl acetate hydrolysis; assay type: biochemical; conditions: for selectivity for b-CA II over 15-LOX: b-CA II vs 15-LOX
# Chain of bovine carbonic anhydrase II (b-CA II) (P00921 whole entry): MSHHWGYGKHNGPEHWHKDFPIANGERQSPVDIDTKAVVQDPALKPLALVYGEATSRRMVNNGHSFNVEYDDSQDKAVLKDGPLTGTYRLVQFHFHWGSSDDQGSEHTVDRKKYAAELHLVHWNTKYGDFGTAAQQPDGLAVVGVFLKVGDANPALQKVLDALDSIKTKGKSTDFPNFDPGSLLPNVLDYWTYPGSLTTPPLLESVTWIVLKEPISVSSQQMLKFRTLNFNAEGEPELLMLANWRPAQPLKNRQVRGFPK
# Procedure: Carbonic anhydrase (b-CA II) inhibition activity was determined according to the previously reported protocol. IC50 values were calculated through GraphPad PRISM 5.0 Software Inc., San Diego, CA, USA.
# This method is based on the spectrophotometric determination of hydrolytic product of substrate p-nitrophenyl acetate substrate. Assay volume was kept at 100 µL, comprised of 60 µL of Tris-sulfate buffer (50 mM, 0.1 mM ZnCl2 at pH 7.6), 10 µL of test compound with concentration of 50 µM and 10 µL (50 U) of b-CA II. The reaction mixture was incubated at 25 °C for 10 min and […]
# Reaction was initiated by addition of 20 µL of p-nitrophenyl acetate (6mM) as substrate and incubated for further 30 min. […]
# test compounds. All experiments were performed in triplicate and dose response curves were […]
# (1 picture or pasted object on this page, not shown here)
# 15-lipoxygenase (15-LOX) = biological target: T1, 15-lipoxygenase (15-LOX) (Glycine max, UniProt P08170); assay: Lipoxygenase (15-LOX) inhibition assay, linoleic acid substrate, absorbance 234 nm; assay type: biochemical; conditions: for IC50: mean of three experiments, read-out: 15-LOX IC50 ± SEM; for inhibition at 100 µM: final concentration of 100 μM
# T1 sequence (P08170 1-839): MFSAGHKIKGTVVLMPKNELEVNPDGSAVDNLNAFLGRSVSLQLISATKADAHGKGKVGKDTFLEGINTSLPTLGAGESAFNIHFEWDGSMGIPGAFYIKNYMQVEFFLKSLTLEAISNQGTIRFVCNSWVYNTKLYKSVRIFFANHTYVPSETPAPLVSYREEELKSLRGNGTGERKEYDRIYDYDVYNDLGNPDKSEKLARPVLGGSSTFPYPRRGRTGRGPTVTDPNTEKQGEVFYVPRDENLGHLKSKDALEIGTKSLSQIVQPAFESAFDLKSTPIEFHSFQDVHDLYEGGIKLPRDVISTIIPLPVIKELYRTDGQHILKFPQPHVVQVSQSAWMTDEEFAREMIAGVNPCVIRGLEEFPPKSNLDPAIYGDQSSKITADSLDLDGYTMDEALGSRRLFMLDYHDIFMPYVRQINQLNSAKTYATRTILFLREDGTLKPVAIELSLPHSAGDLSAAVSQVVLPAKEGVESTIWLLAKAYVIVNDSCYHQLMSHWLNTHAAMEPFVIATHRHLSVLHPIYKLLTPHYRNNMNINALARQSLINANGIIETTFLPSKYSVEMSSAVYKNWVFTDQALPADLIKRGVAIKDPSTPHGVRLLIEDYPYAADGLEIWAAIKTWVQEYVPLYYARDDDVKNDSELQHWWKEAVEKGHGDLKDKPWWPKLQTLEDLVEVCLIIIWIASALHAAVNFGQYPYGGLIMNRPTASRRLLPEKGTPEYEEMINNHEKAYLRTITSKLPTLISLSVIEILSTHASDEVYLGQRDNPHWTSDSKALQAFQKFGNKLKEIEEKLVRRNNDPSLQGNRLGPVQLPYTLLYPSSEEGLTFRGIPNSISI
# Procedure: The lipoxygenase activity was determined with the some modifications to the reported method. The compounds were first screened at 0.1 mM. Assay buffer was made containing 100 mM KH2PO4 and the pH was adjusted at 8.0. Initially, 145 µL of assay buffer was added in each well of a 96-well plate, followed by the addition of 10 µL of 15-LOX enzyme (42.5 units/well). Then, 20 µL of test compound was added in each well and incubated for 10 min at 25 °C. Absorbance was measured at 234 nm by multimode micro-plate reader, FLUOstar Omega, Germany as a pre-read value. Further reaction was carried out by adding of 25 µL of substrate linoleic acid and incubation for 10 min at 25 °C. After incubation, absorbance was calculated again at 234 nm as after read. […] The IC50 values for all experiments were determined using a nonlinear curve fitting tool and all experiments were carried out in triplicate format in GraphPad PRISM 5.0 (GraphPad, San Diego, CA, USA).
# [2] = mean of three experiments, read-out: b-CA II IC50 ± SEM
Compound,"IC50 [1, 2] [µM]",IC50 (15-lipoxygenase (15-LOX)) [µM],melting point [°C],selectivity for b-CA II over 15-LOX [1],inhibition at 100 µM (15-lipoxygenase (15-LOX)) [%],IC50 [1] [µM],fold higher potential towards b-CA II compared with standard inhibitor acetazolamide ([1]; vs acetazolamide)
COc1cc2cc(OC)c(OC)c(/C=N/NC(N)=S)c2cc1OC [3a],0.31 ± 0.01,0.37 ± 0.02,240,,,,
C#CCN(C)c1ccc(/C=N/NC(N)=S)cc1 [3b],4.97 ± 0.16,,245,selective towards b-CA II; also recorded: selective inhibitors of CA II,< 50,,
NC(=S)N/N=C/c1ccccc1F [3c],2.02 ± 0.12,0.16 ± 0.01,,,,,
NC(=S)N/N=C/c1cc([N+](=O)[O-])ccc1Cl [3d],0.28 ± 0.01,,248,selective towards b-CA II; also recorded: selective inhibitors of CA II,< 50,,
COc1ccc(/C=N/NC(N)=S)cc1O [3e],0.38 ± 0.02,1.34 ± 0.14,,,,,
NC(=S)N/N=C/c1ccc(Br)s1 [3f],10.2 ± 0.21,0.82 ± 0.19,243,,,,
NC(=S)N/N=C/c1c(F)cccc1Cl [3g],0.84 ± 0.05,,,selective towards b-CA II; also recorded: selective inhibitors of CA II,< 50,,
NC(=S)N/N=C/c1cccc(F)c1 [3h],,0.14 ± 0.01,,,,0.13 ± 0.01,≈ 7 fold
